Results as given in patent US11298330B2, “Magnesium compositions and methods of use” (Neurocentria, Inc., priority 2017, dated 2022).

Tests used:
[1] = test system: young (9-month old) and aged (25-month old) rats; details: food containing 2% magnesium oxide for 8 days, cited from earlier work
diabetic patients [2] = details: nearly 1 g of magnesium daily for 1 month; cited from earlier work
[3] = test system: cultured rat hippocampal neurons; assay: Probability of transmitter release (Pr) by FM dye uptake; assay type: cell-based; details: extracellular magnesium concentration from 0.8 mM to 1.2 mM for 4 h
Method: An example of the effect of calcium and magnesium on the regulation of Probability of transmitter release (Pr) is shown in FIG. 3. In an experiment, rat hippocampal neurons were cultured in vitro in varying concentrations of extracellular calcium or magnesium, thereby effectively varying concentrations of intracellular calcium or magnesium. A traceable dye was used as a model neurotransmitter to measure the change in Pr. […] Furthermore, at a relatively low intracellular calcium concentration, the inverse relationship between intracellular magnesium concentration and Pr was more apparent, as shown in FIG. 3B. At a low calcium concentration condition, increasing the extracellular magnesium concentration promoted more synapses with a higher intracellular magnesium concentrations and low Pr values. […]
The Probability of transmitter release (Pr) of cultured rat hippocampal neurons was measured by quantification of N-β-Triethylammoniumpropyl)-4-(4-(Dibutylamino) Styryl) Pyridinium Dibromide (FM) dye uptake following a string of 30 single 1 Hertz (Hz) action potentials (Pr1Ap). […] Intracellular magnesium concentration was quantified by the intensity of MgGreen (MgGrn), a fluorescent dye that was proportional to magnesium concentration (Zhou et al., 2015).

diabetic patients [4] = details: 720 mg/day for three months; cited from earlier work

| SMILES | side-effect [1] | cognitive function ([1]; gain transient) | increase of serum magnesium level (diabetic patients [2]) | metabolic control (diabetic patients [2]) | effect on calcium-Pr relationship [3] | blood magnesium levels raised, on average (diabetic patients [4]) | metabolic control as assessed by HbAlc levels (diabetic patients [4]) |
| --- | --- | --- | --- | --- | --- | --- | --- |
| [O]=[Mg] [magnesium oxide] | diarrhea and weight loss | some sign of improvement | about 10% | only minor improvement | – | – | – |
| [Mg+2] [magnesium] | – | – | – | – | shifted the calcium-Pr relationship to the right | about 10% | no improvement |
